Starred links: 1 amine or outer side, 2 acyl side, 3 side chain; linkers in the order of their positions; H or OH if unused. Residues, ends and D or L forms follow the SMILES beside them. *: point of attachment. Doxorubicin(3'-N) = COc1cccc2c1C(=O)c1c(O)c3c(c(O)c1C2=O)C[C@@](O)(C(=O)CO)C[C@@H]3O[C@H]1C[C@H](N*)[C@H](O)[C@H](C)O1; DBCO = C1#Cc2ccccc2N(*)Cc2ccccc21; Suc = O=C(CCC(=O)[*:2])[*:1]
Columns and labels:
[1] = system: HT1080 human fibrosarcoma cells; assay: WST-1 cell proliferation / cytotoxicity assay; format: cell-based; conditions: for Cytotoxicity (in words) / Survival Rate (SR): HT1080, 72 h; for Cytotoxicity (in words): WST-1, 5-50 μM DOX eq (Figure S14), n = 3
Method: Human fibrosarcoma cell line HT1080 (ATCC® CCL-121™, Manassas, VA, USA) was grown as monolayers in DMEM (1x) + GlutaMAX™-1 medium supplemented with 10% fetal calf serum and […] streptomycin and 100 IU/mL penicillin. Cells were cultivated at 37 °C in humidified 95% air and 5% CO2 atmosphere and routinely maintained by serial passage in a new medium. Prior to experiments, cells were tested for mycoplasma contamination with the MycoAlert™ kit.
Cells were seeded at a density of 8000 cells/well in a 96-well plate (clear-bottom black plate, 3603, Corning, Luzern, Switzerland) one day prior to the experiment. […] Cell proliferation assays were performed at 72 h upon incubation using a Cell Proliferation reagent (WST-1) following the manufacturer’s recommendations. The absorption was measured at 450 nm with a plate reader (Safire). The percentage of cell survival was calculated with respect to control samples treated with either medium or a solution of DMSO (50%) in serum-free medium, as follows: [A (test-conc.) − A (100% dead)/A (100% viable) − A (100% dead)] × 100. Mean values from three wells were determined and expressed as ± S.D. All assays were done in triplicates.

HT1080 cells [2] = assay: Cell cycle analysis by flow cytometry (Hoechst 33342, Dean-Jett-Fox model); format: cell-based, human
Method: (§1) HT1080 cells were seeded in 6-well plates (flat-bottom cell culture microplate, 3505, Corning, Luzern, Switzerland) at a density of 150,000 cells/well and were left to attach overnight. […] Cells were incubated for 24, 48 and 72 h in the dark at 37 °C. Cells were washed 3 times with DPBS, detached from the surface with a cell-scraper and resuspended in 500 μL of DPBS. Cells were analyzed immediately on a BD LSR Fortessa cell analyzer (BD Biosciences, San Jose, CA, USA). […] For this purpose, 1 mM Tris buffer was prepared and the pH was adapted to 7.6 with 30% HCl. Igepal CA-630 and Hoechst 3342 (5 μg/mL final concentration) were added, and the reagent was filtered. […] Samples were incubated at 4 °C for 1 h and analyzed with a BDLSR Fortessa cell analyzer. Acquisition data were analyzed using FlowJo V10 software (FLOWJO, LCC, Ashland, OR, USA). For cell cycle analysis, the Dean-Jett-Fox model was used. All measurements were done in triplicates. Mean values and S.D. were calculated and plotted for each tested compound.

HT1080 cells [3] = assay: Flow cytometry of intracellular and nuclear DOX accumulation; format: cell-based, human; conditions: 24 h, 0.3 μM (DOX eq), isolated nuclei, triplicates
Method: as §1, with “compound. Fluorescence of control cells incubated in serum-free medium was subtracted from acquired DOX-emitted fluorescence.” for “compound.”

HT1080 cells [4] = assay: Confocal fluorescence microscopy, co-localization (PCC) of DOX fluorescence; format: cell-based, human; conditions: 24 h incubation, 0.3 μM free DOX; mean ± SD of three images
Method: HT1080 cells were seeded one day before the experiment at a density of 78,500 cells in 1.3 mL of complete medium into a glass-bottom microwell dish (35 mm petri dish, 14 mm microwell, MatTek Corporation). […] Control cells were incubated in serum-free medium under the same experimental conditions. Cells were then washed with DPBS and incubated for 20 min with 1 μg/mL Hoechst 33,342 stain and 70 nM of LysoTracker® Green DND-26. Prior to imaging, cells were washed with DPBS and serum-free medium was put into every dish. Fluorescence imaging was carried our using a Zeiss LSM780 (Zeiss, Jena, Germany) inverted confocal microscope. The microscopic images were using 405 and 488 nm lasers as excitation wavelengths, 495–525, 575–625 and 415–492 nm emission filters, and an objective lens, Plan-Aprochromat 63 x/1.4 oil DIC M27. During the image acquisition time, slides were kept at 37 °C in a humidified chamber (INUBTF-WSKM-F1, Tokai Hit, Japan). ZEN 2 software (Zeiss, Jena, Germany) was used for image processing. […] […] PCC was calculated in regions of interest (ROI), separately defined for each image by masking the entire dataset with the red channel (DOX fluorescence). The value of PCC for each experiment is presented as mean ± S.D. calculated from three separate images.

[5] = 24 h, 0.3 μM (DOX eq), mean ± S.D., n = 3
[6] = 48 hours, equimolar concentration (DOX eq)
[7] = 72 hours, equimolar concentration (DOX eq)

## COc1cccc2c1C(=O)c1c(O)c3c(c(O)c1C2=O)C[C@@](O)(C(=O)CO)C[C@@H]3O[C@H]1C[C@H](NC(=O)CNC(=O)[C@H](C)NC(=O)[C@H](C)NC(=O)[C@H](CCCNC(=N)N)NC(=O)[C@H](CCCNC(=N)N)NC(=O)CNC(=O)[C@H](C)NC(=O)CNC(=O)CCC(=O)N2Cc3ccccc3C#Cc3ccccc32)[C@H](O)[C@H](C)O1 ({DBCO-Suc}-GAGRRAAG-{Doxorubicin(3'-N)})
[1]
  Cytotoxicity (in words): significant cytotoxicity

## COc1cccc2c1C(=O)c1c(O)c3c(c(O)c1C2=O)C[C@@](O)(C(=O)CO)C[C@@H]3O[C@H]1C[C@H](N)[C@H](O)[C@H](C)O1.Cl [DOX, Doxorubicin hydrochloride salt]
HT1080 cells [2]; [5]
  % G1: 30.4 ± 2.3%
  % S: 36.7 ± 11.9%
HT1080 cells [2]; [6]
  % G1: 29.2 ± 1.5%
  % G2: 33.6 ± 5.7%
  % S: 32.3 ± 4.4%
HT1080 cells [2]; [7]
  % G1: 32.6 ± 3.2%
  % G2: 27.3 ± 8.1%
  % S: 35.8 ± 6.7%
HT1080 cells [3]
  DOX accumulation in the nucleus: significant DOX accumulation in the nucleus
[1]; WST-1, [Dox] 0.01 mM as printed, SD 9.7 wrapped
  Survival Rate (SR): 86.4%
[1]; WST-1, [Dox] 0.05 mM as printed, SD 10.6 wrapped
  Survival Rate (SR): 81.7%
[1]; WST-1, [Dox] 0.10 mM as printed, SD 9.7 wrapped
  Survival Rate (SR): 69.9%
[1]; WST-1, [Dox] 0.15 mM as printed, SD 7.3 wrapped
  Survival Rate (SR): 53.7%
[1]; WST-1, [Dox] 0.2 mM as printed, SD 4.7 wrapped
  Survival Rate (SR): 34.6%
[1]; WST-1, [Dox] 0.4 mM as printed, SD 1.3 wrapped
  Survival Rate (SR): 6.9%
[1]; WST-1, [Dox] 0.5 mM as printed, SD 0.4 wrapped
  Survival Rate (SR): 1.3%
[1]; WST-1, [Dox] 0.6 mM as printed, SD 0.5 wrapped
  Survival Rate (SR): 0.4%
[1]; WST-1, [Dox] 0.8 mM as printed, SD 0.7 wrapped
  Survival Rate (SR): 0%
[1]; WST-1, [Dox] 1.0 mM as printed, SD 0.5 wrapped
  Survival Rate (SR): 0.4%
[1]; HT1080, 72 h incubation, WST-1, free DOX (data not shown)
  IC50: 160 nM
HT1080 cells [4]
  PCC between DOX and Hoechst 33342: 0.41 ± 0.10

## PEG10-GAGRRAAG-DOX
[1]
  Cytotoxicity (in words): no cytotoxicity

Source: article PMC7570921, “Cathepsin B-Cleavable Cyclopeptidic Chemotherapeutic Prodrugs” (Molecules, 2020)
